ChEMBL document CHEMBL1151185, “Isolation and structure elucidation of a novel antimalarial macrocyclic polylactone, menisporopsin A, from the fungus Menisporopsis theobromae” (J Nat Prod, 2004)
Converted amounts (≈) assume the structure as drawn. The source made the active and inactive calls. No cut-off for these calls is given here.

What was measured:
Candida albicans = test: Antimicrobial activity against Candida albicans at 20ug/mL; assay type: functional, organism-based
BC1 = test: Cytotoxicity against human BC1 cells at 20 ug/mL by colorimetric method; assay type: functional, cell-based
Plasmodium falciparum [1] = test: Antimalarial activity against multidrug-resistant Plasmodium falciparum K1 at 20 ug/mL as reduced [3H]hypoxanthine uptake; assay type: functional, organism-based
Plasmodium falciparum [2] = test: Antimalarial activity against multidrug-resistant Plasmodium falciparum K1 by [3H]hypoxanthine uptake; assay type: functional, organism-based
[3] = test system: Mycobacterium tuberculosis; test: Antimycobacterial activity against Mycobacterium tuberculosis H37Ra by microplate alamar blue assay; assay type: functional
[4] = Cytotoxicity against human BC1 cells by colorimetric method; assay type: functional, cell-based
KB = test: Cytotoxicity against human KB cells by colorimetric method; assay type: functional, cell-based

Compound	Activity (Candida albicans)	Activity (BC1)	Activity (Plasmodium falciparum [1])	IC50 (Plasmodium falciparum [2]) [mg/L]	MIC [3] [mg/L]	IC50 [4] [mg/L]	IC50 (KB) [mg/L]
COc1cc2c(c(OC)c1)C(=O)O[C@H](C)CC(=O)O[C@H](C)Cc1cc(OC)cc(OC)c1C(=O)O[C@H](C)CC(=O)O[C@H](C)Cc1cc(OC)cc(OC)c1C(=O)O[C@H](C)C[C@@H](O)C2	inactive	inactive	inactive				
C[C@@H]1Cc2cc(O)cc(O)c2C(=O)O[C@H](C)CC(=O)O[C@H](C)Cc2cc(O)cc(O)c2C(=O)O[C@H](C)C[C@@H](O)Cc2cc(O)cc(O)c2C(=O)O[C@H](C)CC(=O)O1 [MENISPOROPSIN A]	inactive			4 (≈ 5.01 µM)	50 (≈ 62.6 µM)	5 (≈ 6.26 µM)	6 (≈ 7.51 µM)
